Test results reported in patent US5716928A, “Use of essential oils to increase bioavailability of oral pharmaceutical compounds” (priority 1995, dated 1998).

Test system: rat cytochrome P450 3A
Conditions: for % inhibition of cyclosporine metabolism, repeat 0.0001(SD) (Table 2) / % inhibition of cyclosporine metabolism, 0.0001% (Table 2): oil ingredient 0.0001 wt. %; for % inhibition of cyclosporine metabolism, repeat 0.0001(SD) (Table 2): repeat assay(s), SD in parentheses; for % inhibition of cyclosporine metabolism, 0.0001% (Table 2) / % inhibition of cyclosporine metabolism, 0.001% (Table 2) / % inhibition of cyclosporine metabolism, 0.01% (Table 2): from solvent baseline; for % inhibition of cyclosporine metabolism, 0.001% (Table 2): oil ingredient 0.001 wt. %; for % inhibition of cyclosporine metabolism, 0.01% (Table 2): oil ingredient 0.01 wt. %

SMILES | % inhibition of cyclosporine metabolism, 0.0001% (Table 2) [%] | % inhibition of cyclosporine metabolism, 0.001% (Table 2) [%] | % inhibition of cyclosporine metabolism, 0.01% (Table 2) [%] | other results
C=CC(C)(O)CCC=C(C)C (racemic) [Linalool-(±), 3,7-Dimethyl-1,6-octadien-3-ol] | 41 | 72.0 | 85 | % inhibition of cyclosporine metabolism, repeat 0.0001(SD) (Table 2): -7(9) %
C=C(C)[C@H]1CC=C(C)C(=O)C1 [Carvone-(S)-(+), p-Mentha-6,8-dien-2-one] | 30 | 70.5 | – | –
CC(=O)N1CCN(c2ccc(OCC3COC(Cn4ccnc4)(c4ccc(Cl)cc4Cl)O3)cc2)CC1 (stereo not drawn) [Ketoconazole, reference compound] | – | – | – | % inhibition of cyclosporine metabolism, reference compound at 0.000001% (Table 3) (0.000001 %): 8%; % inhibition of cyclosporine metabolism, reference compound at 0.000005% (Table 3) (0.000005 %): 20%; % inhibition of cyclosporine metabolism, reference compound at 0.00001% (Table 3) (0.00001 %): 42%; % inhibition of cyclosporine metabolism, reference compound at 0.00005% (Table 3) (0.00005 %): 100%
CC(C)=CCCC(C)CCO (stereo not drawn) [Citronellol-(DL)-(β), 3,7-Dimethyl-6-octen-1-ol] | 41 | 86 | 95 | % inhibition of cyclosporine metabolism, repeat 0.0001(SD) (Table 2): 35(4) %
C=C1C2CCC(C2)C1(C)C (single isomer, unassigned) [Camphene-(+), 2,2-Dimethyl-3-methylenebicyclo[2.2.1]heptane] | -49 | 12.4 | – | –
CC1=CCC(O)(C(C)C)CC1 (stereo not drawn) [Terpinen-4-ol, p-Menth-1-en-4-ol] | 3.81 | 80 | 100 | –
COc1cc(CNC(=O)CCCC/C=C/C(C)C)ccc1O [Capsaicin, trans-8-Methyl-N-vanillyl-6 nonenamide] | 27 | 68 | – | –
C=C(C)[C@H]1CC=C(C)CC1 [Limonene-(R)-(+), p-Mentha-1,8-diene] | – | 20 | 84 | –
C/C=C/c1ccc(OC)cc1 [Anethole, trans-, 4-Propenylanisole] | – | 53 | 100 | –
CC1=CC=C(C(C)C)CC1 [Terpinene-α, p-Mentha-1,3-diene] | -6 | 28 | – | –
C=CC(C)(CCC=C(C)C)OC(C)=O (stereo not drawn) [Linalyl Acetate, 3,7-Dimethyl-1,6-octadien-3-yl acetate] | – | 55.8 | 100 | –
COC(=O)c1ccccc1N [Mcthyl Anthranilate, Methyl 2-aminobenzoate] | -7 | 23 | – | –
CC(C)[C@@H]1CC[C@@H](C)CC1=O [Menthone-(-), p-Menthan-3-one] | 14 | 52 | – | –
C=C(C)[C@@H]1CC=C(C)C(=O)C1 [Carvone-(R)-(-), p-Mentha-6,8-dien-2-one] | 27 | 69 | 100 | –
CC/C=C\CC1=C(C)CCC1=O [Jasmone, cis-, 3-Methyl-2-(2-pentenyl)-2-cyclopenten-1-one] | 16.0 | 68 | – | –
C=C(C)[C@@H]1CC=C(C)CC1 [Limonene-(S)-(-), p-Mentha-1,8-diene] | – | 30 | 82.3 | –
CC(C)=C1CC[C@@H](C)CC1=O [Pulegone-(R)-(+), p-Menth-4(8)-en-3-one] | -17 | 31 | – | –
CC(C)=CCC/C(C)=C/C=O [Citral] | 44 | 54 | 99 | –
CCC=CCC1C(=O)CCC1CC(=O)OC (racemic) [Methyl Jasmonate-(±), Methyl-3-oxo-2-(2-pentenyl)-cyclopentane acetate] | -27 | 65 | – | –

SMILES | % inhibition of cyclosporine metabolism, 0.0001% (Table 2) [%] | % inhibition of cyclosporine metabolism, 0.001% (Table 2) [%] | % inhibition of cyclosporine metabolism, 0.01% (Table 2) [%] | other results
CC1(C)C(=O)[C@]2(C)CC[C@H]1C2 [Fenchone-(1R)-(-), 1,3,3-Trimethylbicyclo [2.2.1] heptan-2-one] | 14 | 38 | – | –
C=CCc1ccc(O)c(OC)c1 [Eugenol, 4-Allyl-2-methoxyphenol] | 9.8 | 66 | 100 | –
CC1=CCC(C(C)(C)O)CC1 (stereo not drawn) [Terpineol-α, p-Menth-1-en-8-ol] | 13.4 | 86 | 100 | –
CC1(C)[C@H]2CC[C@](C)(C2)[C@H]1O [Fenchol-(1R)-endo-(+), 1,3,3-Trimethylbicyclo [2.2.1] heptan-2-ol] | 18 | 74 | 100 | –
CCOC(=O)/C=C/c1ccccc1 [Ethyl Cinnamate, trans-, Ethyl 3-phenylpropenoic acid] | -13 | -16 | – | –
O=C(/C=C/c1ccccc1)OCc1ccccc1 [Benzyl Cinnamate, Benzyl 3-phenylpropenoic acid] | 7 | -45 | – | –
C=C1CC/C=C(\C)CC[C@@H]2[C@@H]1CC2(C)C [Caryophyllene, trans-(-), β Caryophyllene] | 26 | 85 | – | –
O=C/C=C/c1ccccc1 [Cinnamic Aldehyde, trans-, 3-Phenylpropenaldehyde] | – | 29.0 | 78 | –
CC(=O)OC/C=C(\C)CCC=C(C)C [Geranyl Acetate, trans-3,7-Dimethyl-2,6-octadien-1-yl acetate] | – | 51.5 | 73 | –
CC12CCC(CC1=O)C2(C)C (racemic) [Camphor-(±), 1,7,7-Trimethylbicyclo [2.2.1] heptan-2-one] | – | – | – | % inhibition of cyclosporine metabolism, repeat 0.001 (SD) (Table 2) (microsomes): 53(3) %
C=C1CC[C@H]2C[C@@H]1C2(C)C [Pinene-(1S)-(-)-β, 6,6-Dimethyl-2-methylenebicyclo[3.1.1]heptane] | -10 | 60 | 88 | –
C=CC(=C)CCC=C(C)C [Myrcene-β, 7-Methyl-3-methylene-1,6-octadiene] | 0 | 13 | – | –
C=CCc1ccc(OC)cc1 [Estragole, 4-Allylanisole] | 7 | 69.2 | 100 | –
Cc1ccc(C(C)C)cc1O [Carvacrol, 5-isoPropyl-2-methylphenol] | 11 | 93 | 97 | –
C=C(C)C1CC=C(C)C(O)C1 (single isomer, unassigned) [Carveol-(-), p-Mentha-6,8-dien-2-ot] | 2 | 60 | – | –
CC(C)=CCC/C(C)=C/CC/C(C)=C/CO [Farnesol. trans-, trans-, 3,7,11-Trimethyl-2,6,10-dodecatrien-1-ol] | 49 | 82 | – | –
CCOc1cc(C=O)ccc1O [Ethyl Vanillin, 3-Ethoxy-4-hydroxybenzaledhyde] | – | – | 58 | –
CC=C(C)C=CC=C(C)C [Allo Ocimene, 2,6-Dimethyl-2,4,6-octatriene] | 6 | 22 | – | –
